Literature values in patent US20170079478A1, “NITROUS OXIDE MIXTURES AND METHODS OF USE” (KORVATA INC., priority 2014, published 2017).
Read-outs that look alike come from different tables or passages of the source.

How the values were obtained:
[1] = compared with nitrogen standardized to 1.0

SMILES	lipid solubility (0° C. and 15 psi)	lipid solubility (20° C. and 15 psi)	RNP (Relative Narcotic Potency) [1]
[Ar] [Ar, argon]	0.30 mg/mL	0.25 mg/mL	2.3
[N-]=[N+]=O [Example N2O, nitrous oxide]			39
[He] [He, helium]			0.045
[Kr] [Kr, krypton]			7.1
[Ne] [Ne, neon]			0.3
[Xe] [Xe, xenon]			25.6
